Where “and” joins values, the source holds several entries; their conditions need not be identical. Identical values can stand only once.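 A five-concentration, 48-hour dose response in 96-well plates underlies each endpoint, interpolated linearly between surrounding concentrations. GI50: concentration for 50% inhibition of growth. TGI: concentration producing complete growth inhibition.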 *1 amine or outer side, *2 acyl side, *3 side chain or, on linkers, in order; H or OH if unused. Where a SMILES comes first, the peptide text is derived from it. Bridges are numbered along the chain shown (N, C = ends). [ ]: non-standard residue; d: D form. The star is where a group is joined. Phe(3,5-F2) = N[C@@H](Cc1cc(F)cc(F)c1)C(=O)O; Pro(4R-Me) = C[C@H]1CN[C@H](C(=O)O)C1; aThr = C[C@H](O)[C@H](N)C(=O)O; Pip = O=C(O)[C@@H]1CCCCN1; X10 = Fc1cc(C2CC2)ccc1N*; Abu = CC[C@H](N)C(=O)O; CO = O=C([*:1])[*:2]
Each compound was assayed on MDA-MB-468 breast (assay: NCI-60 cell line screen, 48 h).

First: COc1cc(C(C)c2ccc3c(ccn3C)c2)cc(OC)c1OC (stereo not drawn)
Second: CCN(CC)c1ccc2c(cc1=O)[C@@H](NC(C)=O)CCc1cc(OC)c(OC)c(OC)c1-2
The GI50 of the first is lower: less than 0.01 µM for the first, 0.13 µM for the second.

Compared with O=C1Nc2ccccc2C1(c1c[nH]c2ccccc12)c1c[nH]c2ccccc12, O=c1[nH]c2ccc(N=Cc3c(O)[nH]c4ccccc34)cc2[nH]1 is higher in GI50: 2.08 µM for the first, greater than 25 µM for the second.

COc1ccc(F)cc1/C=C/C(=O)/C=C(/C=C/c1cc(F)ccc1OC)OB(F)F and COc1ccc(C(O)c2cc3c(N)c(C(=O)Nc4cccc(OC)c4)sc3nc2C)cc1 (stereo not drawn) are within 1.5-fold of each other in GI50: 1.62 µM for the first, 1.23 µM for the second.

Compared with O=C(CNc1c(Cl)cccc1Cl)Nc1ccc(-c2nc3ccccc3s2)cc1, COc1cc(-c2nn(-c3ccc(NC(=O)NCCCNC(=O)c4ccccc4)cc3)cc2-c2ccncc2)ccc1Cl is 7.5-fold higher in GI50: 0.0381 µM for the first, 0.284 µM for the second.

Going from COc1cnc2c(c1)C(=O)c1c-2n(CCCBr)c(=O)c2cc([N+](=O)[O-])ccc12 to O=[N+]([O-])c1ccc2scc3c4ccccc4nc-3c2c1, the GI50 rises from 0.291 µM to 0.919 µM (3.2-fold).

Compared with COc1cccc2cc(N(C)c3ncnc4ccccc34)ccc12, Cc1nc2ccccc2c(/C=C/c2ccc(Cl)cc2)c1C(=O)/C=C/c1ccc(F)cc1 is higher in GI50: less than 0.01 µM for the first, 1.8 µM for the second.

Compared with O=C(O)c1sccc1O, Oc1ccc(CCl)c2cccnc12 is 9.7-fold lower in GI50: 32.9 µM for the first, 3.39 µM for the second.

Going from Cc1ccc(C)c(COc2cc(NC(=O)c3ccc4c(c3)OCO4)ccc2N(C)S(C)(=O)=O)c1 to O=C(Nc1ccc(Oc2cccc(Cl)c2)c(Cl)c1)c1cnccn1, the GI50 rises from 0.114 µM to 0.255 µM (2.2-fold).

Going from CC[C@@H]1NC(=O)[C@@H]2CCCCN2C(=O)[C@@H]2CCCN2C(=O)[C@@H](NC(=O)[C@H](Cc2cc(F)cc(F)c2)NC(=O)Nc2ccc(C3CC3)cc2F)[C@H](C)OC(=O)[C@@H]2C[C@@H](C)CN2C1=O ({X10-CO}-[Phe(3,5-F2)][aThr]P[Pip][Abu][Pro(4R-Me)]; ester 2-C) to CCn1cc(C(=O)N/N=C/c2ccc(Br)cc2)c(=O)c2cc(F)c(N3CCNC(C)C3)c(F)c21 (stereo not drawn), the GI50 rises from 0.0267 µM to 1.59 µM (60-fold).

Going from c1ccc(CSc2nnc3c4c5c(sc4nc(-c4cccnc4)n23)CCCCCC5)cc1 to Nc1c(C(=O)Nc2ccccn2)sc2nc3c(cc12)CCCCC3, the GI50 rises from 0.568 µM to 1.05 µM (1.8-fold).

Going from N=C1S/C(=C/c2ccc(-c3ccc4c(c3)C(=O)NC4=O)o2)C(=O)N1c1ccc(Br)cc1 to CC(=O)Nc1ccc2c(C3=C(c4cn(C)c5ccccc45)C(=O)NC3=O)cn(C)c2c1, the GI50 falls from 4.57 µM to 0.988 µM (4.6-fold).

Going from Cc1cc(Nc2ncc(F)c(N[C@H]3[C@@H](C(N)=O)[C@@H]4C=C[C@H]3C4)n2)ccc1N1CCN(C)CC1 to Cn1cc(C2=C(c3c4n(c5ccccc35)CCN(C(N)=S)C4)C(=O)NC2=O)c2ccccc21, the GI50 rises from less than 0.0161 µM to 3.35 µM.

Going from CC/C=C\C/C=C\C[C@H]1C/C=C2/C(=O)C=C[C@@H]2C/C=C\CCC(=O)O1 to CCCCCc1c(C)[nH]c(/C=C2\N=C(c3ccc[nH]3)C=C2Oc2ccccc2)c1C, the GI50 falls from 0.838 µM to 0.0104 µM (81-fold).

Going from COc1cc(OC)cc(C2C(C#N)=C(N)Oc3c2ccc2ccc(O)cc32)c1 (stereo not drawn) to FC(F)(F)CNc1nccc(-c2cnn3ncccc23)n1, the GI50 rises from less than 0.01 µM to 8.49 µM.

Compared with ClC1=C(Cl)C(Cl)=C(Cl)C1=Cc1ccccc1, CC(C)=NNc1ncnc2c1ncn2C1OC(CO)C(O)C1O (stereo not drawn) is 2.6-fold lower in GI50: 1.31 µM for the first, 0.499 µM for the second.

Work on O=C(NC1CCC(Br)CC1)C1CCCC(S(=O)(=O)NC2CCCCC2)C1 (stereo not drawn) yielded a GI50 of 6.44 µM.

Going from COc1cc(C(C)c2ccc3c(ccn3C)c2)cc(OC)c1OC (stereo not drawn) to COc1ccc(C(O)c2cc3c(N)c(C(=O)Nc4cccc(OC)c4)sc3nc2C)cc1 (stereo not drawn), the TGI falls from 62.1 µM to 4.61 µM (13-fold).

Going from O=C1Nc2ccccc2C1(c1c[nH]c2ccccc12)c1c[nH]c2ccccc12 to O=c1[nH]c2ccc(N=Cc3c(O)[nH]c4ccccc34)cc2[nH]1, the TGI rises from 4.56 µM to greater than 25 µM.

COc1ccc(F)cc1/C=C/C(=O)/C=C(/C=C/c1cc(F)ccc1OC)OB(F)F and Cc1nc2ccccc2c(/C=C/c2ccc(Cl)cc2)c1C(=O)/C=C/c1ccc(F)cc1 are within 1.5-fold of each other in TGI: 4.37 µM for the first, 3.73 µM for the second.

Going from O=C(CNc1c(Cl)cccc1Cl)Nc1ccc(-c2nc3ccccc3s2)cc1 to COc1cc(-c2nn(-c3ccc(NC(=O)NCCCNC(=O)c4ccccc4)cc3)cc2-c2ccncc2)ccc1Cl, the TGI rises from 0.219 µM to 0.827 µM (3.8-fold).

First: COc1cnc2c(c1)C(=O)c1c-2n(CCCBr)c(=O)c2cc([N+](=O)[O-])ccc12
Second: O=[N+]([O-])c1ccc2scc3c4ccccc4nc-3c2c1
The TGI of the first is 2.4-fold lower: 0.955 µM for the first, 2.25 µM for the second.

Compared with COc1cccc2cc(N(C)c3ncnc4ccccc34)ccc12, COc1cc(OC)cc(C2C(C#N)=C(N)Oc3c2ccc2ccc(O)cc32)c1 (stereo not drawn) is 4.8-fold lower in TGI: 4.74 µM for the first, 0.98 µM for the second.

First: O=C(O)c1sccc1O
Second: Oc1ccc(CCl)c2cccnc12
The TGI of the first is higher: greater than 100 µM for the first, 54.3 µM for the second.

First: Cc1ccc(C)c(COc2cc(NC(=O)c3ccc4c(c3)OCO4)ccc2N(C)S(C)(=O)=O)c1
Second: O=C(Nc1ccc(Oc2cccc(Cl)c2)c(Cl)c1)c1cnccn1
The TGI of the first is lower: 0.44 µM for the first, greater than 15.8 µM for the second.

First: CC[C@@H]1NC(=O)[C@@H]2CCCCN2C(=O)[C@@H]2CCCN2C(=O)[C@@H](NC(=O)[C@H](Cc2cc(F)cc(F)c2)NC(=O)Nc2ccc(C3CC3)cc2F)[C@H](C)OC(=O)[C@@H]2C[C@@H](C)CN2C1=O ({X10-CO}-[Phe(3,5-F2)][aThr]P[Pip][Abu][Pro(4R-Me)]; ester 2-C)
Second: CCn1cc(C(=O)N/N=C/c2ccc(Br)cc2)c(=O)c2cc(F)c(N3CCNC(C)C3)c(F)c21 (stereo not drawn)
The TGI of the first is 21-fold lower: 0.149 µM for the first, 3.09 µM for the second.

First: c1ccc(CSc2nnc3c4c5c(sc4nc(-c4cccnc4)n23)CCCCCC5)cc1
Second: Nc1c(C(=O)Nc2ccccn2)sc2nc3c(cc12)CCCCC3
The TGI of the first is lower: 4.12 µM for the first, greater than 50 µM for the second.

N=C1S/C(=C/c2ccc(-c3ccc4c(c3)C(=O)NC4=O)o2)C(=O)N1c1ccc(Br)cc1 and CC(=O)Nc1ccc2c(C3=C(c4cn(C)c5ccccc45)C(=O)NC3=O)cn(C)c2c1 cannot be ordered by TGI: greater than 100 µM for the first, greater than 7.22 µM for the second.

First: Cc1cc(Nc2ncc(F)c(N[C@H]3[C@@H](C(N)=O)[C@@H]4C=C[C@H]3C4)n2)ccc1N1CCN(C)CC1
Second: Cn1cc(C2=C(c3c4n(c5ccccc35)CCN(C(N)=S)C4)C(=O)NC2=O)c2ccccc21
The TGI of the first is lower: 1.26 µM for the first, greater than 21 µM for the second.

First: CC/C=C\C/C=C\C[C@H]1C/C=C2/C(=O)C=C[C@@H]2C/C=C\CCC(=O)O1
Second: CCCCCc1c(C)[nH]c(/C=C2\N=C(c3ccc[nH]3)C=C2Oc2ccccc2)c1C
The TGI of the first is 8.4-fold higher: 2.53 µM for the first, 0.301 µM for the second.

First: ClC1=C(Cl)C(Cl)=C(Cl)C1=Cc1ccccc1
Second: FC(F)(F)CNc1nccc(-c2cnn3ncccc23)n1
The TGI of the first is lower: 2.69 µM for the first, greater than 25 µM for the second.

Compared with O=C(NC1CCC(Br)CC1)C1CCCC(S(=O)(=O)NC2CCCCC2)C1 (stereo not drawn), CC(C)=NNc1ncnc2c1ncn2C1OC(CO)C(O)C1O (stereo not drawn) is 6.4-fold lower in TGI: 24.9 µM for the first, 3.9 µM for the second.

With C[C@]12CC[C@H](OC3OC(O)C(O)C(O)C3O)C=C1CCC1C2CC[C@]2(C)[C@@H](c3ccc(=O)oc3)CC[C@]12O (stereo partly drawn) the GI50 was 0.00379 µM and 0.00512 µM.
For FC(F)(F)c1ccc(CNc2ccc(Cc3c[nH]c4ncc(Cl)cc34)cn2)cn1, the GI50 was 5.1 µM and 3.77 µM.
With COCCNCCc1cccc(Nc2ncc3c(n2)-c2ccccc2C(c2ccccc2F)C3)c1 (stereo not drawn) the GI50 was 1.9 µM and 2 µM.

In the case of C[C@]12CC[C@H](OC3OC(O)C(O)C(O)C3O)C=C1CCC1C2CC[C@]2(C)[C@@H](c3ccc(=O)oc3)CC[C@]12O (stereo partly drawn), the TGI was 0.0202 µM and 0.0145 µM.
In the case of FC(F)(F)c1ccc(CNc2ccc(Cc3c[nH]c4ncc(Cl)cc34)cn2)cn1, the TGI was 34.4 µM and > 10 µM.
CCC[C@H](N[C@H]1CCc2cc(F)cc(F)c2C1)C(=O)Nc1cn(C(C)(C)CNCC(C)(C)C)cn1 was tested, and the TGI was 74.6 µM and 21.1 µM.
COCCNCCc1cccc(Nc2ncc3c(n2)-c2ccccc2C(c2ccccc2F)C3)c1 (stereo not drawn) was tested, and the TGI was 3.7 µM and 3.86 µM.
